# According to patent publication US20210338728A1, “METHODS AND COMPOSITIONS FOR THE EXPANSION AND USE OF ALLOGENEIC GAMMA/DELTA-T CELLS” (Phosphogam, Inc., priority 2018, published 2021):
# Test system: γδ-T cells
# Test: Ex vivo expansion of human γδ-T cells from healthy donor PBMC with C-HDMPP and IL-2, flow cytometry at day 21
# Type: cell-based
# Excerpt: Peripheral blood mononuclear cells (PBMC) were isolated from peripheral blood obtained by venipuncture from a healthy individual. Fresh blood was collected using standard aseptic technique. PBMC were isolated utilizing a standard density gradient centrifugation method. PBMC were washed in PBS, then resuspended in complete RPMI-1640 supplemented with 10% characterized fetal bovine serum and PCN+streptomycin.
# Cell cultures were initiated by seeding PBMC into tissue culture flasks to which recombinant human IL-2 was added. γδ-T cell expansion was initiated by the addition of C-HDMPP. Cultures were maintained at 37° C., 5% CO2 in incubators situated within a BSL2 containment environment. Fresh media was added as needed to keep cell concentration at approximately 1×10^6 cells/ml. Human IL-2 was added every 5 days. Cultures were maintained for 21 days at which time they were analyzed by flow cytometry. […] At 100 nM C-HDMPP the cultures were ≥96% pure γδ-T cells with viability ≥96%.
# [1] = 100 nM C-HDMPP, 21 days of culture with IL-2, flow cytometry
compound,measurement,setting,value
C/C(=C\CCP(=O)(O)OP(=O)(O)O)CO [C-HDMPP],purity of γδ-T cells in the cultures,[1],≥ 96%
same,viability of the cultures,[1],≥ 96%
same,γδ-T cell growth (expansion) versus concentration,"nanomolar concentrations, 21 days, FIG. 1",can be titrated to promote optimal γδ-T cell growth while avoiding overstimulation
